Experimental data published in paper PMC6801822, “The Bactericidal Activity of Temporin Analogues Against Methicillin Resistant Staphylococcus aureus” (International Journal of Molecular Sciences, 2019).
≈ marks a conversion by molar mass, not a printed value. Non-standard residues stand in square brackets, D forms with d. Residues, ends and D or L forms follow the SMILES beside them. AEEA = NCCOCCOCC(=O)O

Legend:
S. aureus USA300 = assay: LIVE/DEAD BacLight staining (SYTO9/PI); format: cell-based, Staphylococcus aureus; settings: 3 h, n = 2
Experimental: USA300 cells were collected from overnight cultures, at the end of the exponential growth phase and the beginning of the stationary phase, washed and suspended at 2 × 10^7 bacteria/mL and staphylococci were treated with DAL-PEG-DK5 (0.5–50 µg/mL) for 3 h. In order to obtain a standard curve, five different proportions of live and dead bacteria were mixed prior to staining. After the incubation, the 100 µL of bacterial suspensions were transferred to flat bottom black 96-well microtitration plate. Staining solution containing SYTO9 and PI (100 µL) prepared according to manufacturer’s instructions was then mixed with bacterial suspensions. Samples were incubated at room temperature in the dark for 15 min and fluorescence intensity was measured with FlexStation3 Multimode Microplate Reader using a 485 nm excitation filter (for both SYTO9 and PI) and a 530 nm (SYTO9 emission wavelength) and 630 nm (PI emission wavelength) emission filter. The data were analyzed by dividing the fluorescence intensity of the stained bacterial suspensions at green emission by the cell fluorescence intensity of red fluorescence. All samples were prepared in triplicates.

HaCaT cells = assay: LDH release assay (CytoTox96); format: cell-based, human; settings: for cytotoxicity (LDH), % of cells: HaCaT, 200 μg/mL
Experimental: Figure 3 The influence of DAL-PEG-DK5 on physiology of human keratinocytes. The potentially toxic effect of DAL-PEG-DK5 on HaCaT cells was evaluated using (A) MTT and (B) LDH assay. Cells were plated on 96-well plates and incubated overnight. Next, keratinocytes were treated with the peptide at different concentrations (5–200 μg/mL) for 3, 6, 18 h. Mean ± SD n = 2. ** p < 0.005 *** p < 0.001 **** p < 0.0001; 2way ANOVA. (C) Morphology of HaCaT cells was examined by confocal laser scanning microscopy. HaCaT cells were treated with CFS-conjugated DAL-PEG-DK5 (25 μg/mL) for 30 min at 37 °C and were stained with: DAPI and phalloidin for nuclear detection and actin cytoskeleton detection, respectively. Blue – DNA; red – f-actin; green-peptide conjugate; scale bar: 10 μm. Images present single slice of XY stacks.
To assess the effect of peptides on the integrity of the plasma membrane, the LDH release assay was performed using the CytoTox96 nonradioactive cytotoxicity assay kit (Promega, Madison, WI, USA) according to the manufacturer’s instructions. Cytotoxicity was calculated with the formula: % cytotoxicity = 100 × (experimental LDH release/ maximum LDH release), where maximum LDH release is after lysis solution addition (Triton X-100). Relative amounts of LDH release were measured (absorbance at 490 nm) using plate reader SpectraMax (Molecular Device, Wokingham, UK). All assays were performed in triplicate.

[1] = system: MRSA clinical isolate 1694; settings: MRSA clinical isolate 1694 (blood); broth microdilution, MHB, 24 h
Experimental: Antimicrobial activity of peptides was analyzed through determination of MIC parameter according to the standard microdilution technique performed on 96-well plates. Mueller-Hinton broth (MHB, Sigma Aldrich, St. Louis, MO, USA) was used as the working medium for all bacterial strains. Briefly, inoculum was prepared from freshly grown cultures of bacteria being at their exponential phase of growth. Each well of 96-well plates containing 100 µL of serially diluted peptides in PBS at desired concentration was inoculated with 100 µL of 10^5 CFU/mL of bacterial suspension. Then plates were incubated overnight 37 °C and absorbance was read at 600 nm after 24 h. Wells without peptide were treated as the positive control, while uninoculated MHB was defined as the negative control. All measurements were run in triplicates.

[2] = system: intracellular S. aureus USA300 in HaCaT cells; assay: Killing of intracellular S. aureus in keratinocytes, CFU count
Experimental: (A) USA300 survival within infected HaCaT cells. Keratinocytes were infected with USA300 (MOI 1:5, 1:25, 1:50, 1:100) for 2.5 h and treated with DAL-PEG-DK5 (50 μg/mL) for 3 h. Afterwards, keratinocytes were lysed and plated on agar plates for counting of bacteria. The number of viable bacterial cells is expressed as CFU/mL with respect to the number of intracellular bacteria in the corresponding control samples. The data shown is representative of two separate experiments performed in triplicate. Mean ± SD n = 2. * p < 0.01; ** p < 0.005; one-way ANOVA. (B) Keratinocytes were infected with USA300 (MOI 1:50) for 2.5 h and treated with DAL-PEG-DK5 (50 μg/mL) for indicated time points (1, 3, 6 h). Afterwards, keratinocytes were lysed and plated on agar plates for counting of bacteria. The number of viable bacterial cells is expressed as a CFU/mL with respect to the number of intracellular bacteria in the corresponding control samples. Mean ± SD n = 2. * p < 0.01; ** p < 0.005; **** p < 0.0001; one-way ANOVA. […] (C) Keratinocytes were infected with USA300 (MOI 1:50) for 2.5 h and treated with DAL-PEG-DK5 (50 μg/mL) for 1 h. Afterwards, keratinocytes were lysed and plated on agar plates for counting of bacteria. […] The number of viable bacterial cells is expressed as a % of control with respect to the number of intracellular bacteria/bacteria in suspension in the corresponding control samples. […]

CC[C@H](C)[C@H](NC(=O)COCCOCCNC(=O)[C@H](CCCNC(=N)N)NC(=O)[C@H](CC(C)C)NC(=O)[C@H](Cc1ccccc1)NC(=O)CNC(=O)[C@@H](C)NC(=O)[C@@H](N)Cc1ccc(O)cc1)C(=O)N[C@@H](CCCCN)C(=O)N[C@@H](CCCCN)C(=O)N[C@H](C(=O)N[C@@H](CC(C)C)C(=O)N[C@@H](CO)C(=O)N[C@H](CCCCN)C(=O)N[C@H](C(=O)N[C@@H](CCCCN)C(=O)N[C@@H](CCCCN)C(=O)N[C@@H](CC(C)C)C(=O)N[C@@H](CC(C)C)C(N)=O)[C@@H](C)CC)[C@@H](C)CC [DAL-PEG-DK5] (H-Y[dA]GFLR[AEEA]IKKILS[dK]IKKLL-NH2; N-terminus assumed)
live bacteria (S. aureus USA300; USA300, 5 μg/mL): 20%
live bacteria (S. aureus USA300; USA300, 10 μg/mL): 5%
LDH release from HaCaT cells (HaCaT cells; 75 μg/mL): low, but still significant, release of dehydrogenase
cytotoxicity (LDH), % of cells (HaCaT cells; 3 and 6 h): 40%
cytotoxicity (LDH), % of cells (HaCaT cells; 18 h): 100%
non-toxic dose for HaCaT cells (HaCaT cells; based on MTT and LDH data): ≤ 50 µg/mL
MIC [1]: 70 µg/mL (≈ 30.7 µM)
reduction of intracellular USA300 load ([2]; HaCaT infected 2.5 h at MOI 1:50 and 1:100, peptide 50 μg/mL, 3 h): more than 60%
reduction of MRSA load in keratinocytes ([2]; HaCaT, USA300 MOI 1:50, peptide 50 μg/mL (1.25 × MIC), 1 h, n = 2): 71.5%
